Measured values reported in publication PMC6334005, “Ginsenosides Act As Positive Modulators of P2X4 Receptors” (Molecular Pharmacology, 2019).

Assays:
[1] = target: T1, hP2X4 (Homo sapiens, UniProt Q99571); experiment: cell-based; design: gene P2RX4
T1 sequence (Q99571 1-388): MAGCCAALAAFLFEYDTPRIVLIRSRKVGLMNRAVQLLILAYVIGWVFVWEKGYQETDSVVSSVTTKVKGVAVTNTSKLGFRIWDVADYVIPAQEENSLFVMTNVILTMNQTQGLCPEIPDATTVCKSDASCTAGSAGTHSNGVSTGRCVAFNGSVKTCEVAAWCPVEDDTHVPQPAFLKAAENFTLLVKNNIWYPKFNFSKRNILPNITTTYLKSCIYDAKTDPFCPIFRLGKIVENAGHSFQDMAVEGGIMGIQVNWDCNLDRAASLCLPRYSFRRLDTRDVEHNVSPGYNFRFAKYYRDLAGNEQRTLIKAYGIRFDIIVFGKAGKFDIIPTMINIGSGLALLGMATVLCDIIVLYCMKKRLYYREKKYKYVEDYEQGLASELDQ

[2] = target: T1, hP2X4; experiment: YOPRO-1 dye uptake, potentiation of ATP response; format: cell-based; design: gene P2RX4; full-length, C-terminal Glu-Glu tag, pcDNA3, stably expressed in HEK-293 cells; homotrimer

| SMILES | EC50 [1] [µM] | EC50 [2] [µM] |
| --- | --- | --- |
| Nc1ncnc2c1ncn2[C@@H]1O[C@H](COP(=O)(O)OP(=O)(O)OP(=O)(O)O)[C@@H](O)[C@H]1O [ATP] | 1.92 |  |
| CC(C)=CCC[C@](C)(O[C@@H]1O[C@H](CO)[C@@H](O)[C@H](O)[C@H]1O)[C@H]1CC[C@]2(C)[C@@H]1[C@H](O)C[C@@H]1[C@@]3(C)CC[C@H](O)C(C)(C)[C@@H]3CC[C@]12C [CK] |  | 8.5 |
| CC(C)=CCC[C@](C)(O[C@@H]1O[C@H](CO[C@@H]2O[C@H](CO)[C@@H](O)[C@H](O)[C@H]2O)[C@@H](O)[C@H](O)[C@H]1O)[C@H]1CC[C@]2(C)[C@@H]1[C@H](O)C[C@@H]1[C@@]3(C)CC[C@H](O[C@@H]4O[C@H](CO)[C@@H](O)[C@H](O)[C@H]4O[C@@H]4O[C@H](CO)[C@@H](O)[C@H](O)[C@H]4O)C(C)(C)[C@@H]3CC[C@]12C [Rb1] |  | 10.5 |
| CC(C)=CCC[C@](C)(O[C@@H]1O[C@H](CO)[C@@H](O)[C@H](O)[C@H]1O)[C@H]1CC[C@]2(C)[C@@H]1[C@H](O)C[C@@H]1[C@@]3(C)CC[C@H](O[C@@H]4O[C@H](CO)[C@@H](O)[C@H](O)[C@H]4O[C@@H]4O[C@H](CO)[C@@H](O)[C@H](O)[C@H]4O)C(C)(C)[C@@H]3CC[C@]12C [Rd] |  | 7.5 |
